In brackets after ≈: the same amount, converted by molar mass. Several values for one entry are separate records, joined by “and”; a condition that tells them apart may be missing. Equal entries are not always repeated. Where two headings read alike, the source gives them in different places.
Experiments:
[1] = test system: Enterococcus faecalis DSM-20477; experiment: MIC screening against Gram-positive pathogens; type: cell-based
Procedure: (§1) 4.3.3. Screening against clinically relevant Gram-positive pathogens.
(§2) All microorganisms were obtained from the German Collection of Microorganisms and Cell Cultures (DSMZ) and were handled according to standard procedures. Bacteria were inoculated into tryptic soy broth (TSB) to obtain a final inoculum of […] colony-forming units (CFU)/mL. The tested compounds were prepared as DMSO stocks (20 mM). Serial dilutions of derivatives in the growth medium (0.06 to 128 µM) were prepared in sterile 96-well plates, and the bacterial suspensions were added. Growth inhibition was assessed after static incubation at 37 °C for 24 h. S. pneumoniae was grown at 5% CO2. MIC values are defined as the lowest compound concentration where no visible growth is observed.

[2] = test system: S. pneumoniae DSM-11865; experiment: MIC screening against Gram-positive pathogens; type: cell-based; conditions: Streptococcus pneumoniae
Procedure: as §1, §2

[3] = test system: E. faecium DSM-20478; experiment: MIC screening against Gram-positive pathogens; type: cell-based; conditions: Enterococcus faecium
Procedure: as §1, §2

[4] = test system: E. faecium DSM-17050; experiment: MIC screening against Gram-positive pathogens; type: cell-based; conditions: Enterococcus faecium
Procedure: as §1, §2

[5] = test system: ECF-FoIT2; experiment: Uptake assay into proteoliposome (radiolabelled folate uptake); type: biochemical, L. delbrueckii; conditions: folate uptake into proteoliposomes, n = 2, mean ± SD
Procedure: In summary, both 1 and 22 are capable of inhibiting the ECF-FoIT2 in a proteoliposome-based uptake assay which further complements the results obtained from the whole-cell uptake assay. Table 4. Relative inhibition of ECF-FoIT2 in proteoliposome uptake assay
4.3.2. Uptake assay into proteoliposome
This assay was performed based on the protocol reported by Swier et al. with minor modifications.^18

[6] = test system: Streptococcus pneumoniae DSM-20566; experiment: MIC screening against Gram-positive pathogens; type: cell-based; conditions: 37 °C, 24 h
Procedure: as §1, §2

Structure (SMILES) | MIC ([1]; Enterococcus faecalis, DSM20477, 24 h) [µM] | MIC ([2]; DSM11865, 24 h) [µM] | MIC ([3]; DSM20478, 24 h) [µM] | MIC ([4]; DSM17050, 24 h) [µM] | Relative inhibition (%) at 150 µM [5] | MIC ([1]; DSM20477, Enterococcus faecalis DSM-20477, TSB, 37 °C, 24 h, read-out: MIC) [µM] | MIC ([2]; DSM11865, S. pneumoniae DSM-11865, penicillin-resistant strain, TSB, 37 °C, 24 h, 5% CO2, read-out: MIC) [µM] | MIC ([3]; DSM20478, E. faecium DSM-20478, TSB, 37 °C, 24 h, read-out: MIC) [µM] | MIC ([6]; DSM20566, TSB, 5% CO2, read-out: MIC) [µM] | MIC ([6]; TSB, 5% CO2) [µM] | MIC ([4]; DSM17050, E. faecium DSM-17050, vancomycin-resistant strain, TSB, 37 °C, 24 h, read-out: MIC) [µM]
O=C(O)CCc1nc(-c2ccc(Cl)cc2)c(-c2ccccc2)o1 [Compound 1, 3-(4-(4-Chlorophenyl)-5-phenyloxazol-2-yl)propanoic acid] | > 128 | > 128 | > 128 | > 128 | 44% and 44 ± 2% | – | – | – | – | – | –
O=C(O)c1cccc(-c2nc(-c3ccc(Cl)c(Cl)c3)c(-c3cccc(C(F)(F)F)c3)o2)c1 [Compound 22, 3-(4-(3,4-Dichlorophenyl)-5-(3-(trifluoromethyl)phenyl)oxazol-2-yl)benzoic acid] | – | – | – | – | 95% and 95 ± 1% | 4 (≈ 1.91 µg/mL) | 0.5 to 1 (≈ 0.239 to 0.478 µg/mL) | 4 (≈ 1.91 µg/mL) | 0.5 to 1 (≈ 0.239 to 0.478 µg/mL) | 0.5 to 1 | 2 (≈ 0.957 µg/mL)

From patent EP4663242A1, “TARGETING THE ENERGY COUPLING FACTOR (ECF) TRANSPORTERS AS NOVEL ANTIMICROBIAL TARGET” (Helmholtz-Zentrum für Infektionsforschung GmbH, priority 2024, dated 2025)
